Results reported in patent publication US7531356B2, “Promoter sequences for corticotropin releasing-factor receptor CRF2α and method of identifying agents that alter the activity of the promoter sequences” (Wisconsin Alumni Research Foundation, priority 2000, dated 2009).
Ends that are not written are not given here.

Key:
[1] = test system: full-length CRF2α receptor promoter (−3898 construct); experiment: Luciferase reporter expression from the full-length (−3898) CRF2α receptor promoter construct in transfected A7R5 cultures; type: cell-based, human; conditions: for effect of antagonist on CRF or urocortin induced reduction in expression from the full length promoter: antagonist 1 μM plus CRF or urocortin 1 μM; for change in expression from the −3898 construct compared to untreated control cultures: agonist 1 μM alone, p<0.001
Description: (§1) In one embodiment, the present invention is a transfected cell line. One preferred method of creating such a cell line is described as follows: The constructs described above containing the human or rat promoter fragments placed upstream of the firefly luciferase gene are used to transfect immortalized cell lines. The constructs are transfected into CHO-K1 and A7R5 cell lines using lipofectamine 2000 (Life Technologies, Rockville, Md.). […] Both cell lines can be maintained at 37° C. with 5% CO2 in DMEM supplemented with 10% fetal bovine serum. Primary cultures of the central nervous system, as well as additional immortalized cell lines, are also appropriate for these transfections. To control for transfection efficiency, the cells are also co-transfected with the pRL-TK vector (Promega, Madison, Wis.). The pRL-TK vector contains the Renilla luciferase gene downstream of the herpes simplex virus thymidine kinase promoter, a promoter which provides low to moderate levels of expression. Cell lysates are assayed for total protein using the BCA assay (Pierce, Rockford, Ill.) to standardize for the protein extraction. The level of reporter gene expression from a standardized amount of cell extract is quantified by measuring luciferase activity using a luminometer (EG&G Wallac, Gaithersburg, Md.) and the dual-luciferase reporter assay system (Promega, Madison, Wis.). Firefly luciferase activity reflects CRF2α receptor promoter activity and Renilla luciferase activity is used to normalize data between experiments.
Using a similar experimental paradigm, we treated A7R5 cultures to determine what agents may alter expression from the CRF2α promoter. In addition to treating the cultures with CRF and urocortin (1 μM each), A7R5 cultures also were treated with either of the antagonists alone D-Phe or DMP696 (1 μM each), CRF plus D-Phe (1 μM each), CRF plus DMP696 (1 μM each), urocortin plus D-Phe (1 μM each), and with urocortin plus DMP696 (1 μM each). D-Phe is a non-selective CRF receptor antagonist, blocking both CRF1 and CRF2 receptors, whereas DMP696 is specific to CRF1 receptors. A7R5 cultures are known to express CRF2 receptors and should be a highly appropriate cell type to monitor CRF2α receptor expression.
In a separate experiment the effects of forskolin and dexamethasone were compared to DMSO control A7R5 cultures. […] These findings are consistent with those seen in the CHO-K1 cultures.

[2] = test system: full-length CRF2α receptor promoter (−3898 construct); experiment: Luciferase reporter expression from the full-length (−3898) CRF2α receptor promoter construct in transfected CHO-K1 cultures; type: cell-based, human; conditions: CHO-K1, −3898 construct, forskolin 10 μM without IBMX, 24 hours; for change in expression from the full-length CRF2α promoter compared with control cultures: CRF, urocortin, dexamethasone 1 μM, vs untreated (CRF, urocortin) or DMSO control
Description: as §1
A stated goal for the constructs is the ability to identify agents that can alter expression of the CRF2α gene. […] Using methods previously described in this application, CHO-K1 cultures were transfected with the −3898 construct and the pRL-TK internal control construct. These cultures were then treated with either CRF (1 μM), urocortin (1 μM), dexamethasone (1 μM), forskolin (10 μM), or the appropriate control at the time of transfection. […]

Row | Compound | effect of antagonist on CRF or urocortin induced reduction in expression from the full length promoter [1] | change in expression from the −3898 construct compared to untreated control cultures [1] | change in expression from the full-length CRF2α promoter compared with control cultures [2] | mean expression (firefly luciferase activity normalized to Renilla luciferase) ([2]; DMSO control mean 0.411±0.004, p<0.001)
1 | COCC(COC)Nc1nc(C)nc2c(-c3ccc(Cl)cc3Cl)c(C)nn12 [DMP696] | did not affect either the CRF or urocortin induced reduction in expression |  |  | 
2 | urocortin: neurotransmitter similar to CRF; ligand for the CRF receptors (DNPSLSIDLTFHLLRTLLELARTQSQRERAEQNRIIFDSV; ends and bridges not checked; UniProt P55089 83-122, looked up) |  | significantly decrease expression | did not significantly change expression | 
3 | CRF: hormone and neurotransmitter; ligand for the CRF receptors |  | significantly decrease expression | did not significantly change expression | 
4 | D-Phe | brought expression from the full length promoter back to the levels seen in the untreated controls |  |  | 
5 | C=C[C@@]1(C)CC(=O)[C@]2(O)[C@@]3(C)[C@@H](O)CCC(C)(C)[C@@H]3[C@H](O)[C@H](OC(C)=O)[C@@]2(C)O1 [forskolin] |  |  |  | 0.302±0.012
